Data from ChEMBL document CHEMBL5055686, “Discovery of AL-GDa62 as a Potential Synthetic Lethal Lead for the Treatment of Gastric Cancer” (J Med Chem, 2021).

Experiments:
MCF-10A [1] = test: Antitumor activity against human spontaneously immortalized wild type MCF-10A cells assessed as cell numbers measured after 48 hrs; type: functional, cell-based
MCF-10A [2] = test: Antitumor activity against human spontaneously immortalized CDH-/- MCF10A cells assessed as cell numbers measured after 48 hrs; type: functional, cell-based
[3] = Ratio of EC50 for antitumor activity against human spontaneously immortalized wild type MCF10A cells assessed as cell numbers measured after 48 hrs to antitumor activity against human spontaneously immortalized CDH-/- MCF10A cells assessed as cell numbers measured after 48 hrs; type: functional, MCF-10A
MCF-10A [4] = test: Antitumor activity against human spontaneously immortalized CDH-/- MCF10A cells assessed as cell numbers at 3.13 uM measured after 48 hrs; type: functional
[5] = Homo sapiens, MCF-10A, 48 h, read-out: EC50

SMILES	EC50 (MCF-10A [1]; [5]) [µM]	EC50 (MCF-10A [2]; [5]) [µM]	Ratio EC50 [3]	EC50 (MCF-10A [1]; mcf-10a)	EC50 (MCF-10A [2]; mcf-10a)	inhibition at 3.13 µM (MCF-10A [4]) [%]
COc1ccc2nc(COCCCCCCN=[N+]=[N-])cc(NCc3ccc(F)cc3)c2c1.O=C(O)C(F)(F)F	8.9	8.4	1.1	–	–	–
COc1ccc2nc(C)cc(NCc3cccc(OC(F)F)c3)c2c1	14.3	10.3	1.3	–	–	–
CCCCCCCOc1cc2nc(C)cc(NCc3ccc(F)cc3)c2cc1OC	2.2	1.7	–	–	–	–
COc1cc2c(NC3CCN(C)CC3)cc(C)nc2cc1OCCCN1CCCC1	39.2	41.1	1	–	–	–
COc1ccc2nc(C)cc(NCc3ccccc3OC)c2c1	29.5	25.2	1.2	–	–	–
COc1ccc2nc(C)cc(NCc3ccc(C)cc3)c2c1	22.4	18.8	1.2	–	–	–
COc1ccc2nc(C)cc(NCc3c(F)cccc3F)c2c1	13.6	13.6	1.3	–	–	–
COc1ccc2nc(C)cc(NCc3ccc(OC)c(F)c3)c2c1	10.3	9	1.1	–	–	–
COc1ccc2nc(C)cc(NCC3CCCN(C)C3)c2c1 (stereo not given)	5.8	6.4	–	–	–	–
COc1ccc2nc(C)cc(NCc3ccc(F)c(F)c3)c2c1	12	9.1	1.3	–	–	–
COc1ccc2nc(C)cc(NCc3cccc(N(C)C)c3)c2c1	14	14	1	–	–	–
COc1ccc2nc(-c3ccc(C)o3)cc(NC3CCN(C)CC3)c2c1	0.8	1.1	0.8	–	–	–
CCCCCCCOc1cc(OC)cc2c(NCc3ccc(F)cc3)cc(C)nc12	3.3	2.7	1.2	–	–	–
COc1cc2c(NC3CCN(C)CC3)cc(-c3ccc(C)o3)nc2cc1OCCCN1CCCC1	0.5	0.2	–	–	–	–
CCCCCCCCOc1ccc2nc(C)cc(NCc3ccc(F)cc3)c2c1	2.2	1.8	1.1	–	–	–
COc1ccc2nc(C)cc(NCc3cccc(F)c3)c2c1	14.7	11.3	1.3	–	–	–
COc1ccc2nc(C)cc(NCC[C@@H]3CNC[C@H]3O)c2c1.O=C(O)C(F)(F)F	–	–	–	Nd(Toxic)	Nd(Toxic)	–
COc1ccc2nccc(NCc3ccc(F)cc3)c2c1	16.4	13.3	1.2	–	–	–
COc1ccc2nc(C)cc(NCc3ccc(F)cc3F)c2c1	15	11.6	1.3	–	–	–
COc1ccc2nc(C)cc(NCc3ccc(F)c(OC)c3)c2c1	12.9	9.5	–	–	–	–
COc1ccc2nc(C)cc(NCc3cccc(-c4ccccc4)c3)c2c1	3.1	2.8	1.1	–	–	–

SMILES	EC50 (MCF-10A [1]; [5]) [µM]	EC50 (MCF-10A [2]; [5]) [µM]	Ratio EC50 [3]	EC50 (MCF-10A [1]; mcf-10a)	EC50 (MCF-10A [2]; mcf-10a)	inhibition at 3.13 µM (MCF-10A [4]) [%]
COc1ccc2nc(C)cc(NCc3ccccc3)c2c1	28.6	25.9	1.1	–	–	–
COc1ccc2nc(C)cc(NCc3cccc(CO)c3)c2c1	24.7	17.1	1.4	–	–	–
COc1ccc2nc(C)cc(NCc3cccc4ccccc34)c2c1	50	4.1	12	–	–	–
COc1ccc2nc(C)cc(NCc3cc(F)cc(F)c3)c2c1	18.1	13.3	1.1	–	–	–
COc1ccc2nc(C)cc(NCc3ccccc3CO)c2c1	25.9	22.9	1.1	–	–	–
COc1ccc2nc(C)cc(Nc3ccccc3)c2c1	15.9	17.6	0.9	–	–	–
COc1ccc2nc(C)cc(NCc3ccc(F)cc3)c2c1	12.2	8.2	1.5	–	–	–
Cc1cc(NCc2ccc(F)cc2)c2ccccc2n1	20.1	15.4	1.3	–	–	–
COc1ccc2nc(C)cc(NCc3cccc(C#N)c3)c2c1	17.4	13.4	1.3	–	–	–
COc1ccc(CNc2cc(C)nc3ccc(OC)cc23)cc1	9.7	7	1.4	–	–	–
COc1ccc2nc(C)cc(NCc3ccc(F)cc3C(F)(F)F)c2c1	4.2	5.2	0.8	–	–	–
COc1ccc2nc(C)cc(NCc3ccc(C(C)(C)C)cc3)c2c1	7	6.9	1	–	–	–
CCCOc1ccc2nc(C)cc(NCc3ccc(F)cc3)c2c1	14.3	9.8	1.5	–	–	–
Cc1cc(NCc2ccc(F)cc2)c2cc(OCCCCCCN=[N+]=[N-])ccc2n1	4	4.1	1	–	–	–
COc1ccc2c(NCc3ccc(F)cc3)cc(C)nc2c1	15.9	10.2	1.6	–	–	10
COc1ccc2nc(C)cc(NCc3ccc(C(F)(F)F)cc3)c2c1	7.6	7.6	1.4	–	–	–
COc1cccc(CNc2cc(C)nc3ccc(OC)cc23)c1	12.5	9.7	1.3	–	–	–
Cc1cc(NC2CCN(C)CC2)c2cc(OCCCN3CCCC3)ccc2n1	11.4	13.2	0.9	–	–	–
COc1ccc2nc(C)cc(NCc3ccncc3)c2c1	41.6	40.9	1	–	–	–
Cc1cc(NCc2cccc(C#N)c2)c2cc(OCCCN3CCCC3)ccc2n1	10.3	8.5	1.2	–	–	–
CCCCCCCCCCOc1ccc2nc(C)cc(NCc3ccc(F)cc3)c2c1	2	1.9	1	–	–	–

SMILES	EC50 (MCF-10A [1]; [5]) [µM]	EC50 (MCF-10A [2]; [5]) [µM]	Ratio EC50 [3]	EC50 (MCF-10A [1]; mcf-10a)	EC50 (MCF-10A [2]; mcf-10a)	inhibition at 3.13 µM (MCF-10A [4]) [%]
COc1ccc2nc(C)cc(NCc3ccc(F)c(C(F)(F)F)c3)c2c1	14.3	11.3	1	–	–	–
COc1cc2c(NCc3ccc(F)cc3)cc(-c3ccc(C)o3)nc2cc1OCCCN1CCCC1	2.1	1.8	1.1	–	–	–
Cc1cc(NCc2ccc(F)cc2)c2cc(OCCCCCCO)ccc2n1	11.3	8.1	1.4	–	–	–
COc1ccc2nc(C)cc(NCc3c(F)cccc3C(F)(F)F)c2c1	14	14.2	1	–	–	–
COc1ccc2nc(-c3ccc(C)o3)cc(NCc3ccc(F)cc3)c2c1	11.1	8.3	1.4	–	–	–
COc1ccc2nc(C)cc(NCc3ccccc3F)c2c1	17	14	1.2	–	–	–
COc1ccc2nc(C)cc(NCc3ccc(OC(F)F)cc3)c2c1	14.7	10.4	1.4	–	–	–
COc1ccc2nc(C)cc(NCc3cccc(C(F)(F)F)c3)c2c1	8	7.2	1	–	–	–
COc1cccc(CNc2cc(C)nc3ccc(OCCCN4CCCC4)cc23)c1	3.6	3.6	1.2	–	–	–
COc1ccc2nc(CO)cc(NCc3ccc(F)cc3)c2c1	31	20.8	1.5	–	–	10
COc1ccc2nc(C)cc(NC3CCN(C)CC3)c2c1	7.1	7.8	0.9	–	–	–
COc1ccc2nc(C)cc(NCc3ccc(-c4ccccc4)cc3)c2c1	2.7	2.8	1	–	–	–
COc1ccc2nc(C)cc(NCc3ccc(N(C)C)cc3)c2c1	20	15.1	1.3	–	–	–
COc1ccc2nc(CO)cc(NC3CCN(C)CC3)c2c1	30.1	32.3	0.9	–	–	–
COc1ccc2nc(C)cc(Nc3ccc(F)cc3)c2c1	29.8	28	1.1	–	–	–
COc1ccc2nc(C)cc(NC[C@H]3NC[C@H](O)[C@@H]3O)c2c1.O=C(O)C(F)(F)F	–	–	–	Nd(Toxic)	Nd(Toxic)	–
COc1ccc2nc(C)cc(SCc3ccc(F)cc3)c2c1	50.5	41	1.2	–	–	–
CCCCCCOc1ccc2nc(C)cc(NCc3ccc(F)cc3)c2c1	9.1	8.8	1	–	–	–
COc1ccc2nc(C)cc(SCc3ccccc3)c2c1	37.1	30.6	1.2	–	–	–
COc1ccc2nc(C)cc(NCc3cccnc3)c2c1	49.3	44.8	1.1	–	–	–
COc1cc2c(NCc3ccc(F)cc3)cc(C)nc2cc1OCCCN1CCCC1	2.1	1.9	1.1	–	–	–
